Values of other authors as cited in patent publication US20020006908A1, “ANTICONVULSANT DERIVATIVES USEFUL IN TREATING SCHIZOPHRENIA” (priority 1998, published 2002).

Columns and labels:
[1] = tested on: human epilepsy; settings: adjunctive therapy or monotherapy, clinical trials of human epilepsy
[2] = tested on: rodent models of epilepsy; settings: several rodent models of epilepsy
[3] = tested on: animal model of kindled epilepsy
[4] = tested on: brain GABA activity
[5] = tested on: glutamate receptor

Compound: CC1(C)O[C@@H]2[C@@H](CO[C@@]3(COS(N)(=O)=O)OC(C)(C)O[C@@H]23)O1 [topiramate, 2,3:4,5-bis-O-(1-methylethylidene)-β-D-fructopyranose sulfamate]
- efficacy in treating simple and complex partial seizures and secondarily generalized seizures [1]: effective
- seizure block [2]: effectively block seizures
- seizure block [3]: effectively block seizures
- effect on brain GABA activity [4]: enhancement of brain GABA activity
- effect on glutamate receptor activity [5]: reduced glutamate receptor activity
